Assay results from article PMC5125695, “Antiviral Efficacy of Verdinexor In Vivo in Two Animal Models of Influenza A Virus Infection” (PLoS ONE, 2016).
Where two headings read alike, the source gives them in different places.

Key:
[1] = system: A/California/04/09; parameters: species or system ferrets; details: in vivo
[2] = system: A/California/04/09; parameters: species or system ferrets; details: in vivo; remark: listed apart in the source
[3] = system: A/California/04/09; assay type: in vivo, ferrets
[4] = system: A/California/04/09; parameters: species or system ferrets; details: in vivo; remark: listed apart in the source
[5] = preliminary results, phase I and II studies; cited from earlier work
[6] = system: various influenza A and B virus strains; details: cited from earlier work
[7] = system: A/California/04/09-MA; details: cited from earlier work
[8] = mice, 20 mg/kg at day 1 and 3; data not shown
[9] = in vivo; details: male, po, 5 mg/kg
[10] = in vivo
[11] = human, in vivo; cited from earlier work

CCOC(=O)C1=C[C@@H](OC(CC)CC)[C@H](NC(C)=O)[C@@H](N)C1 [oseltamivir, reference compound]
Lung virus titers at day 4 pi [1]: considerably (p≤0.001) reduced lung virus titers
Influenza-associated lung pathology and inflammation [2]: limited reduction in pathology
Lung score of the representative animal (range 0–4) [2]: 3
IFN-γ expression in nasal exudates at day 2 and 4 pi ([3]; in vivo): trend toward reduced IFN-γ expression
IL-12p40 expression in nasal exudates at day 2 pi ([3]; in vivo): reduced IL-12p40 expression
TNF-α expression in nasal exudates at day 2 pi ([3]; in vivo): reduced TNF-α expression
Infiltrating leukocytes in nasal washes at day 2 pi [4]: Lower numbers of infiltrating leukocytes

O=C(/C=C\n1cnc(-c2cc(C(F)(F)F)cc(C(F)(F)F)c2)n1)NNc1cnccn1 [selinexor]
Anti-cancer activity in human patients [5]: evidence of anti-cancer activity
Oral exposure in human patients [5]: good oral exposure

O=C(/C=C\n1cnc(-c2cc(C(F)(F)F)cc(C(F)(F)F)c2)n1)NNc1ccccn1 [verdinexor]
Replication of various influenza A and B virus strains [6]: effective to inhibit the replication
Lung virus titers at day 4 pi ([1]; 10 mg/kg): considerably (p≤0.001) reduced lung virus titers
Lung virus titers at day 4 pi ([1]; 15 mg/kg): considerably (p≤0.001) reduced lung virus titers
Lung virus titers at day 4 pi ([1]; 25 mg/kg): considerably (p≤0.001) reduced lung virus titers
Virus burden and inflammatory cytokines expression in lungs ([7]; mice infected with A/California/04/09-MA): efficacious in limiting virus burden and inflammatory cytokines expression
Lung pathology and mortality upon lethal virus infection ([7]; mice, oral verdinexor): reduced lung pathology and mortality
Efficacy and tolerability of the treatment regimen [8]: most efficacious yet well tolerated
AUC(0-inf) [9]: 3510 ng·h/mL
AUC(0-t) [9]: 3510 ng·h/mL
Cmax [9]: 1490 ng/mL
Tmax [9]: 0.361 h
half-life [9]: 1.84 h
Influenza-associated lung pathology and inflammation ([2]; 10 mg/kg): significant amelioration
Lung score of the representative animal (range 0–4) ([2]; 10 mg/kg): 2
Influenza-associated lung pathology and inflammation ([2]; 15 mg/kg): limited reduction in pathology
Lung score of the representative animal (range 0–4) ([2]; 15 mg/kg): 2
Influenza-associated lung pathology and inflammation ([2]; 25 mg/kg): significant amelioration
Lung score of the representative animal (range 0–4) ([2]; 25 mg/kg): 2
IFN-γ expression in nasal exudates at day 2 and 4 pi ([3]; […], not statistically significant): trend toward reduced IFN-γ expression
IL-12p40 expression in nasal exudates at day 2 pi ([3]; in vivo, 10 mg/kg): reduced IL-12p40 expression
IL-12p40 expression in nasal exudates at day 2 pi ([3]; in vivo, 25 mg/kg): reduced IL-12p40 expression
TNF-α expression in nasal exudates at day 2 pi ([3]; in vivo, 25 mg/kg): reduced TNF-α expression
Clearance from the plasma [10]: more rapidly cleared from the plasma compared to mice
Oral bioavailability ([10]; po): orally bioavailable
Safety and tolerability in a phase I clinical trial [11]: safe and well-tolerated
Infiltrating leukocytes in nasal washes at day 2 pi [4]: Lower numbers of infiltrating leukocytes
Infiltrating leukocytes in nasal washes at day 4 pi ([4]; 10 mg/kg): significant (p≤0.05) reduction
Infiltrating leukocytes in nasal washes at day 4 pi ([4]; 25 mg/kg): significant (p≤0.05) reduction
